Source: patent publication US20230338609A1, “MEDICAL DEVICES AND MATERIALS COMPRISING BIODEGRADABLE POLYESTERS” (AMICOAT AS, priority 2020, published 2023)
Values after ≈ are worked out from the molar mass of the structure shown.

Legend:
[1] = system: Aspergillus niger - G.R. Micro collection; type: cell-based
Protocol: (§1) Yeast and filamentous fungal MIC were performed in MOPS buffered RPMI 1640 medium (MOPS buffer obtained from Sigma Aldrich Ltd., RPMI 1640 obtained from Invitrogen Ltd, Paisley, Scotland). The yeast inocula were in the range 7.5×10^2-4×10^3 CFU/mL and the filamentous fungi approximately 8×10^3-1×10^5 CFU/mL

[2] = system: Candida albicans ATCC24433 - reference strain; type: cell-based
Protocol: as §1

[3] = system: Candida albicans ATCC90028 - reference strain; type: cell-based
Protocol: as §1

[4] = system: Candida parapsilosis ATCC90018 - reference strain; type: cell-based
Protocol: as §1

[5] = system: Candida tropicalis ATCC750 - reference strain; type: cell-based
Protocol: as §1

[6] = system: Cryptococcus neoformans - G.R. Micro collection; type: cell-based
Protocol: as §1

[7] = system: Microsporum canis - G.R. Micro collection; type: cell-based
Protocol: as §1

[8] = system: Trichophyton interdigitale - G.R. Micro collection; type: cell-based
Protocol: as §1

[9] = system: Trichophyton mentagrophytes - G.R. Micro collection; type: cell-based
Protocol: as §1

[10] = system: Corynebacterium jeikeium - antibiotic-susceptible clinical isolate; type: cell-based
Excerpt: (§2) Cation-adjusted Mueller-Hinton broth (Oxoid Ltd., Basingstoke, UK and Trek Diagnostic Systems Ltd., East Grinstead, UK) (supplemented with 5% laked horse blood for Streptococcus spp., Corynebacterium jeikeium and Listeria monocytogenes) was used for aerobic bacteria, with an initial inoculum of approximately 10^5 colony-forming units (CFU)/mL.

[11] = system: EMRSA1 Staphylococcus aureus (MRSA) - SSCmec type 3; type: cell-based; conditions: EMRSA1 - SSCmec type 3
Excerpt: as §2

[12] = system: Enterobacter sp - antibiotic-susceptible clinical isolate; type: cell-based
Excerpt: as §2

[13] = system: Enterococcus faecalis vancomycin-resistant (VanA) clinical isolate; type: cell-based
Excerpt: as §2

[14] = system: Enterococcus faecium vancomycin-susceptible clinical isolate; type: cell-based
Excerpt: as §2

[15] = system: Escherichia coli ATCC25922 - antibiotic-susceptible type strain; type: cell-based
Excerpt: as §2

[16] = system: Klebsiella aerogenes - multi-drug resistant clinical isolate; type: cell-based
Excerpt: as §2

[17] = system: Staphylococcus aureus - teicoplanin-intermediate clinical isolate; type: cell-based
Excerpt: as §2

[18] = system: Staphylococcus aureus ATCC 43300 - methicillin-resistant control strain; type: cell-based
Excerpt: as §2

[19] = system: Staphylococcus haemolyticus - antibiotic susceptible clinical isolate; type: cell-based
Excerpt: as §2

[20] = system: Stenotrophomonas maltophilia - antibiotic-susceptible clinical isolate; type: cell-based
Excerpt: as §2

[21] = system: Streptococcus agalactiae - antibiotic-susceptible clinical isolate; type: cell-based
Excerpt: as §2

[22] = system: Streptococcus bovis - antibiotic-susceptible clinical isolate; type: cell-based
Excerpt: as §2

[23] = system: Streptococcus pneumoniae - penicillin-susceptible clinical isolate; type: cell-based
Excerpt: as §2

[24] = system: Streptococcus pyogenes - Macrolide (M-type) resistance clinical isolate; type: cell-based; conditions: - Macrolide (M-type) resistance clinical isolate
Excerpt: as §2

[25] = system: Propionibacterium acnes- antibiotic-susceptible clinical isolate; experiment: MIC microbroth dilution (CLSI); type: cell-based; conditions: P. acnes antibiotic-susceptible
Protocol: Supplemented Brucella broth (SBB) was used for the anaerobic strains with an inoculum of approximately 10^6 CFU/mL. SBB is a broth consisting of 1% peptone, 0.5% ‘Lab-lemco’, 1% glucose and 0.5% sodium chloride supplemented with 5 […] vitamin K (both obtained from Sigma Aldrich Ltd.)

[26] = system: Staphylococcus aureus FDA486; experiment: Murine skin infection model, topical treatment; type: in vivo; conditions: mice; 2% cream; three treatments at three hourly intervals; biopsy three hours after last
Protocol: The skin of mice was infected with Staphylococcus aureus or Streptococcus pyogenes and subsequently given a total of three treatments at three hourly intervals. Three hours after the last treatment, skin biopsies were collected and the number of colony forming units (CFUs) present in the skin sample was determined. Results are shown in FIGS. 1 and 2, expressed as the number of colony forming units per mouse.
The skin of mice was infected with Staphylococcus aureus or Streptococcus pyogenes and subsequently given a total of three treatments at three hourly intervals. Three hours after the last treatment, skin biopsies were collected and the number of colony forming units (CFUs) present in the skin sample was determined. Results are shown in FIGS. 3, 4 and 5 expressed as the number of colony forming units per mouse.

[27] = system: Haemophilus influenzae - β -lactamase positive clinical isolate
[28] = system: Propionibacterium acnes- antibiotic-resistant clinical isolate; conditions: P. acnes antibiotic-resistant
[29] = system: Methicillin resistant Staphylococcus aureus (MRSA) strain ATCC 33591; conditions: ATCC 33591
[30] = system: Methicillin resistant Staphylococcus epidermidis (MRSE) strain ATCC 27626; conditions: ATCC 27626
C. albicans = conditions: Table 5
S. pyogenes = conditions: Table 5
E. coli = conditions: Table 5
P. aeruginosa = conditions: Table 5

Q: What does the source list for `CCCCCCNC(=O)[C@H](CCCNC(=N)N)NC(=O)[C@H](Cc1c(C(C)(C)C)[nH]c2c(C(C)(C)C)cc(C(C)(C)C)cc12)NC(=O)[C@@H](N)CCCNC(=N)N` [Compound 8]?
A: MIC [1]: 4 µg/mL (≈ 5.21 µM); MIC [2]: 8 µg/mL (≈ 10.4 µM); MIC [3]: 4 µg/mL (≈ 5.21 µM); MIC [4]: 8 µg/mL (≈ 10.4 µM); MIC [5]: 4 µg/mL (≈ 5.21 µM); MIC [6]: 2 µg/mL (≈ 2.6 µM); MIC [7]: 4 µg/mL (≈ 5.21 µM); MIC [8]: 4 µg/mL (≈ 5.21 µM); MIC [9]: 4 µg/mL (≈ 5.21 µM); MIC [10]: 4 µg/mL (≈ 5.21 µM); MIC [11]: 4 µg/mL (≈ 5.21 µM); MIC [12]: 8 µg/mL (≈ 10.4 µM); MIC [13]: 4 µg/mL (≈ 5.21 µM); MIC [14]: 4 µg/mL (≈ 5.21 µM); MIC [15]: 4 µg/mL (≈ 5.21 µM); MIC [16]: 8 µg/mL (≈ 10.4 µM); MIC [17]: 4 µg/mL (≈ 5.21 µM); MIC [18]: 4 µg/mL (≈ 5.21 µM); MIC [19]: 4 µg/mL (≈ 5.21 µM); MIC [20]: 4 µg/mL (≈ 5.21 µM); MIC [21]: 8 µg/mL (≈ 10.4 µM); MIC [22]: 8 µg/mL (≈ 10.4 µM); MIC [23]: 8 µg/mL (≈ 10.4 µM); MIC [24]: 8 µg/mL (≈ 10.4 µM); MIC [25]: 4 µg/mL (≈ 5.21 µM); number of CFUs in skin biopsy vs controls [26]: more effective at reducing the number of CFUs than the placebo and fucidin or bactroban; MIC [27]: 4 µg/mL (≈ 5.21 µM); MIC [28]: 2 µg/mL (≈ 2.6 µM); MRSA (MIC) [29]: 2 µg/mL; MRSE (MIC) [30]: <1 µg/mL; C. albicans (MIC) (C. albicans): 5 µg/mL; S. pyogenes (MIC) (S. pyogenes): 2 µg/mL; E. coli (MIC) (E. coli): 5 µg/mL; P. aeruginosa (MIC) (P. aeruginosa): 5 µg/mL
